From patent publication US20190328721A1, “METHOD OF ACTIVATING DENDRITIC CELLS” (KOREA INSTITUTE OF SCIENCE AND TECHNOLOGY, priority 2018, published 2019) come the findings set out here.

One data set concerns CT26.CL25 cancer cells. The experiment in a line: CT26.CL25 tumor model. It counts as in vivo, Balb/c wild type mice. Particulars: 10 mg/kg intravenous. How it is done: (§1) CT26.CL25 cancer cells (1×10^6) expressing β-galactosidase were subcutaneously injected into the left back of a Balb/c wild type mice to generate a tumor model Similarly, an […] tumor model was prepared by subcutaneously injecting melanoma cell line B16F10-Ova cells (5×10^5) into the left back of C57L/B6 wild-type mice to induce cancer.
(§2) In the case of the CT26.CL25 cancer cell line, 6 days after the injection of the cancer cells, and in the case of B 16F10-Ova, 9 days after the injection of the cancer cells, Y27632 was administered by intravenous injection at a dose of 10 mg/kg as indicated in FIG. 8a. In the case of the CT26.CL25 model, the mice were sacrificed on the 22nd day after the injection of the cancer cells and in the case of the B16F10-Ova cancer model, the mice were sacrificed on the 20th day after the injection of the cancer cells (FIG. 8A). As a negative control, phosphate-buffered saline was administered instead of Y27632.
(§3) The tumor tissues of the mice were excised, an ex vivo image was taken and the tumor tissue were weighed (FIG. 8B). In addition, before the mice were sacrificed, changes in body weights were measured at intervals of 3 days from the 6th day of the cancer cell injection in the CT26.CL25 cancer model and at intervals of 3 days from the 9th day in the B16F10-Ova cancer model (FIG. 8c). Length (L) and width (W) of the tumor tissues were measured, and the volume of the tumor tissues over time was calculated using the following formula (FIGS. 8D and 8E):
(§4) The volume of tumor tissue (V[mm^3])=(L[mm])[…] (W[mm])^2×0.5.

The next data set has as its system B16F10-Ova cells. Put plainly: B16F10-Ova tumor model. It counts as in vivo, C57L/B6 wild-type mice. Particulars: 10 mg/kg intravenous. How it is done: as §1, §2, §3, §4
For data set [1], the system named is CT26.CL25 colon cancer cells expressing mCherry. Put plainly: Phagocytosis of mCherry-expressing cancer cells in the tumor model. The data set is classed as in vivo, mice. Particulars: conditions of Example 2-3. How it is done:
In order to confirm whether or not the ROCK inhibitor Y27632 induces cancer cell phagocytosis in a tumor model, CT26.CL25 colon cancer cells expressing mCherry were prepared and used to create a tumor model by injecting tumor cells into mice, and it was analyzed whether phagocytosis of macrophages and dendritic cells against cancer cells expressing mCherry was increased under the same conditions as in Example 2-3.

The next data set relates to IFN-γ. The experiment in a line: IFN-γ ELISA of draining lymph node cells given β-gal peptide. It counts as in vivo, mice. How it is done:
After draining lymph node was isolated from the tumor model animals, 5 μg/ ? of β-gal peptide (TPHPARIGL, SEQ ID NO: 1, including the naturally processed H-2 Ld limited epitope comprising amino acid residue 876 to 884 of β-galactosidase) which simulates β-gal peptide, a model antigen present in CT26.CL25 cells, or PBS were administered and the expression of IFN-γ was measured by IFN-γ ELISA kit (R&D Systems, Inc., USA).
In general terms: ELISA stands for enzyme-linked immunosorbent assay.

Data set [2] has as its system bone marrow-derived dendritic cells (BMDCs). Put plainly: BMDC maturation markers CD40 and CD86 in vitro. It counts as cell-based, mice. Particulars: 30 μM, 1 hour. The method, then:
In addition, the present inventors used pretreatment with 30 μM of Y27632 for 1 hour of bone marrow-derived dendritic cells (BMDCs) stained with cell marker CellTracker CMFDA (Thermo Fisher Scientific, Inc., USA) and then removed floating tumor cells by withdrawing removing the supernatant. Twenty hours later, the expression of CD40 and CD86 was analyzed by flow cytometry.
The present inventors then investigated whether dendritic cell maturation was promoted by the combination treatment of doxorubicin and Y27632. Specifically, 30 μM of Y27632 was used to pretreat bone marrow-derived dendritic cells (BMDC) stained with CellTracker CMFDA (Thermo Fisher Scientific, USA) for 1 hour, and then doxorubicin-treated CT26.CL25 was co-cultured for 4 hours, and floating cancer cells were removed by withdrawing supernatant. The expression level of CD40 and CD86, which are dendritic cell maturation markers, was analyzed by flow cytometry after 20 hours.

Another data set concerns OT-1 T cells. The experiment in a line: Co-culture of OT-1 T cells with phagocytes isolated from B16F10-Ova-bearing mice (IFN-γ). The data set is classed as in vivo. The method, then: In addition, the expression of IFN-γ in OT-1 T cells co-cultured with macrophages and dendritic cells isolated from the tumor-draining lymph nodes and the tumor tissues in the B16F10-Ova cancer model mice was assessed using IFN-γ ELISA kit (R&D Systems, Inc, USA). It was confirmed that the amount of IFN-γ was increased when the dendritic cells isolated from the tumor-draining lymph nodes and the tumor tissues were co-cultured with OT-1 T cells (FIG. 14D). However, there was no change in the amount of IFN-γ when macrophages and OT-1 T cells were co-cultured.
The present inventors investigated whether the combined administration of Y27632 and doxorubicin induces immunity enhancement through CD8 T cells. For this purpose, dendritic cells isolated from tumor-draining lymph nodes of B16F10-Ova-bearing cancer model mice were co-cultured with OT-1 T cells, and then the amount of IFN-γ was measured by IFN-γ ELISA kit (R&D Systems, USA). […] In addition, it was confirmed that the amount of IFN-γ-positive T cells increased when the dendritic cells derived from mice administered with the combined administration were co-cultured with OT-1 T cells (FIG. 18G).

Another data set concerns CD103 DCs. Put plainly: Phagocytosis of cancer cells by dendritic cells excised from tumor tissues. Particulars: compared with CD103 DCs from control mice. The data set is classed as in vivo. An excerpt:
The present inventors excised dendritic cells from tumor tissues and analyzed the phagocytosis of dendritic cells against cancer cells in vitro using the same method as described in Example 1-1.

Where [3] appears, read: from tumor-draining lymph nodes.

Take `C[C@@H](N)[C@H]1CC[C@H](C(=O)Nc2ccncc2)CC1` [Y27632]: in the data set with CT26.CL25 cancer cells, the “body weight of the mice” value is “no significant change” and the “volume of the tumors” value is on record as “significantly decreased”. Besides, in the data set on CT26.CL25 cancer cells (day 22), the “weight of the tumors” value is given as “significantly decreased”. For the same molecule, in the data set on B16F10-Ova cells, the “body weight of the mice” value is “no significant change” and the “volume of the tumors” value was “significantly decreased”. In addition, the “weight of the tumors” value with B16F10-Ova cells (day 20) is “significantly decreased”. Moreover, in data set [1], the “phagocytosis of tumor dendritic cells against cancer cells expressing mCherry” value is “increased about two-fold” and the “phagocytosis of tumor macrophages against cancer cells expressing mCherry” value is reported as “increased about two-fold”. Also, the “IFN-γ level in draining lymph node” value with IFN-γ (PBS liposome-treated group) is “increased”. Further, in the data set with IFN-γ (mouse, in vivo), the “INF-γ expression in CD8-negative cells of draining lymph node” value is listed as “no difference in INF-γ expression” and the “amount of IFN-γ in CD8-positive cells of draining lymph node” value is “increased”. In addition, the “DC maturation (CD40 and CD86 expression) of BMDCs” value in data set [2] (co-cultivation with CT26.CL25, analysed twenty hours later) is reported as “did not increase”. Moreover, in data set [2] (co-culture 4 hours, analysed after 20 hours), the “dendritic cell maturation (CD40 and CD86) with doxorubicin-treated CT26.CL25” value was “increased”. Further, the “amount of IFN-γ, dendritic cells co-cultured with OT-1 T cells” value in the data set with OT-1 T cells (dendritic cells from tumor-draining lymph nodes and tumor tissues) is given as “increased”. Also, the “T cell priming (amount of IFN-γ), dendritic cells co-cultured with OT-1 T cells” value in the data set with OT-1 T cells (dendritic cells from tumor-draining lymph nodes, doxorubicin study) is listed as “increased”. In the data set with OT-1 T cells (setting [3]), the “proportion of IFN-γ-positive T cells, dendritic cells co-cultured” value was “increased” and the “proportion of IFN-γ-positive T cells, macrophages co-cultured” value is “did not affect”. Besides, the “amount of IFN-γ, macrophages co-cultured with OT-1 T cells” value with OT-1 T cells (mouse, in vivo) is on record as “no change”. The “phagocytosis against cancer cells of CD103 DCs isolated from treated mice” value in the data set on CD103 DCs is “significantly enhanced”.
